This note sets out measurements from patent US20230293488A1, “COMPOSITIONS AND METHODS OF USE OF ANTIBACTERIAL DRUG COMBINATIONS” (priority 2015, published 2023).

Test [1] relates to MRSA N315. Kind of test: Neutropenic mouse peritonitis model of MRSA infection. The test is classed as in vivo, mice. The source says:
In vivo mouse model of MRSA infection: Animals. Outbred ICR female mice (6-8 weeks old, 17-25 g body weight; Harlan Laboratories, Inc., Indianapolis, IN, USA) were used. Mice were given Teklad 2019 Extruded Rodent Diet (Harlan Laboratories, Inc., Indianapolis, IN, USA) and water ad libitum. Mice were maintained in polycarbonate shoebox cages containing corncob (The Andersons, Inc., Maumee, OH, USA) and Alpha-dri (Shepherd Specialty Papers, Inc., Richland, MI, USA) bedding under 12-h light/12-h dark cycle at 22±1° C. All procedures involving animals were approved by the University of Notre Dame Institutional Animal Care and Use Committee.
Neutropenic mouse peritonitis model of MRSA infection. Doses of cyclophosphamide (100 μl of 50 mg/ml in 0.9% saline corresponding to 200 mg/kg; Alfa Aesar, Ward Hill, MA, USA) were given intraperitoneally (IP) at 4 days and 1 day prior to infection. The S. strain N315 was streaked onto Brain-Heart Infusion (BHI; Becton Dickson and Company, Sparks, MD, USA) agar and grown overnight at 36° C. The MRSA N315 bacterial inoculum was adjusted to approximately 1×10^8 CFU/ml (corresponding to OD540=0.5), then diluted to give 2×10^7CFU/ml. A 10% porcine mucin (Sigma-Aldrich, St. Louis, MO, USA) suspension was prepared and adjusted to pH 7. Immediately prior to infection, the bacterial inocula were diluted 1:1 with 10% mucin to a final concentration of 1×10^7CFU/ml in 5% mucin. The mice were then infected IP with 0.5 ml of this inoculum. In vivo dosing of compounds in mice was compared with mean or range peak human plasma concentrations of studied β-lactams^44,46,47,62,63.
Antibiotic preparation. Meropenem was obtained from AK Scientific, Inc. (Union City, CA, USA), piperacillin and tazobactam were obtained from Sigma-Aldrich Co. (St. Louis, MO, USA). Linezolid (CAS 165800-03-3) was obtained from AmplaChem (Carmel, IN, USA). Antibiotics were dissolved at a concentration of 16.67 mg/ml in 30% DMSO/30% propylene glycol/40% water. Linezolid was used as positive control and was prepared at 7.5 mg/ml. Vehicle (30% DMSO/30% propylene glycol/40% water) was included as negative control. The dosing formulations were sterilized by passing through 0.2 μm filter prior to injection.
(§1) Bacterial isolation from blood. Blood samples were checked for bacterial growth by plating and liquid culture. Whole blood (100 μl, three samples per group) was spread onto Brain-Heart Infusion (BHI) agar plates and incubated at 36° C. overnight. Colonies were counted and three colonies were selected, grown overnight in liquid BHI culture at 36° C., then mixed 1:1 with 30% LB-glycerol and stored at −80° C. The remaining three blood samples of each group (50 μl) was added to 5 ml BHI broth and incubated overnight at 36° C. When growth was noted, cultures were mixed 1:1 with 30% LB-glycerol and stored at −80° C.
Statistical Analyses: Data for minimal inhibitory concentrations (MICs) are derived from triplicate measurements. Adaptation data are taken from two replicate experiments for each drug combination condition. Data for qRT-PCR expression profiling are derived from three replicate experiments taken from three biological replicates each, with standard error of measurement calculated. Mice were treated in groups of six, and growth determination of bacteria determined via plate and broth culture in triplicate. Fisher's Exact test with Bonferroni correction was used for 8 independent tests (comparing each treatment to 610 vehicle).

The subject of test [2] is MRSA N315. Kind of test: Adaptation and cross-resistance assays (11-day passage). The following applies: MRSA N315 after exposure to any other single or double compounds. It is filed as cell-based, Staphylococcus aureus. On the procedure: Adaptation and Cross-resistance Assays: 414 MRSA N315 was grown in 150 μl/well of CAMHB with constant shaking at 37° C. and passaged over 11 days in identical 96-well plates containing replicate threefold dilutions of ME/PI/TZ, ME/PI, ME/TZ, PI/TZ, ME, PI, and TZ. Top concentrations of drug combinations were 33.3 μg/ml for each component, while top concentrations for single drugs was 100 μg/ml. To test for cell viability, at the end of the assay on day 11, all wells from the plate were pinned with a sterile 96-pin replicator and transferred to CAMHB only. After passage, plates were filled 1:1 with 30% CAMHB/glycerol and frozen at −80° C. for later analysis.
Growth rate of isolates over passages in each condition was determined by linear best-fit of logarithm-converted exponential growth phase. […] Adapted isolates were retrospectively chosen from each combination or single compound in wells showing an increase in MIC or growth rate, frozen isolates were streaked out on agar plates to obtain single colonies, re-grown in broth conditions identical to those in which they grew originally, and then re-inoculated in sterile 96-well plates identical to the original 11-day 431 plates.

Test [3] has as its system MRSA N315. As to the kind of experiment: In vitro MICs and FICI for MRSA N315 after passage in vivo. The test is classed as cell-based, Staphylococcus aureus.
From the text: We tested MRSA N315 cultures from blood drawn from mice treated with meropenem, piperacillin, or vehicle for their in vitro MICs against ME/PI/TZ and its constituent single drugs to determine whether adaptation occurred during passage in vivo. All four tested isolates of MRSA N315 had identical MICs for the triple ME/PI/TZ and all constituent drugs, and thus identical synergy (Table 6B).
(§2) Microbiological Studies: MRSA N315 was a gift from Dr. Steven Gill, University of Rochester, Rochester, NY, USA. S. aureus ATCC 29213 was acquired from the American Type Culture Collection. De-identified clinical MRSA isolates were selected at random from the clinical isolate strain bank at Barnes-Jewish Hospital, St. Louis, MO, USA. Minimal inhibitory concentration (MIC) assays for inhibition of growth were performed following the recommendations of the Clinical and Laboratory Standards Institute (CLSI)^43. Briefly, 23 antibacterial compounds (Supplemental Table 1) were selected based on coverage of all major drug classes, including three compounds not classified as antibiotics for human use, but with known antibacterial properties. Compounds were dissolved in dimethyl sulfoxide (DMSO) to a stock concentration of 50 mg/ml. Exceptions: Sulfometuron at 20 mg/ml in DMSO; Tobramycin, D-cycloserine, and colistin at 50 mg/ml in H2O and filtered at 2 μm. The 23 compounds were formulated into all 253 possible unique pairwise combinations at fixed ratios and at 100× concentrations in solvent. To increase the range of concentrations assayed for possible synergistic or antagonistic drug interactions (>2,000-fold), the drug stocks were arrayed into threefold dilution series down eight rows in 96-well Costar master drug plates, using a BioMek FX robotic liquid handler (Beckman Coulter, Inc.). Drugs were then mixed 1:100 into 96-well plates containing 200 μl/well of cation-adjusted Mueller-Hinton broth (CAMHB). All drug susceptibility assay wells were inoculated with ˜1 μl of mid-log phase bacterial culture at 0.5 McFarland standard (˜2×10^8 CFU/ml) and grown at 37° C. for 24 h. Endpoint growth at 37° C. after 24 h was determined by optical density at 600 nm ≥0.1 using a Synergy H1 reader (BioTek, Inc.).
as §1

The subject of test [4] is MRSA N315. Kind of test: MIC assay and FICI synergy determination (checkerboard). The test is classed as cell-based, Staphylococcus aureus. The following applies: Staphylococcus aureus, MRSA; single compounds; read-out: MIC in MRSA N315. On the procedure: as §2
Synergy of antibiotic combinations was determined using the fractional inhibitory concentration index (FICI) method ^57,58. By this method, the MIC of the antibiotic compound in combination is divided by the MIC of the compound alone, yielding the fractional contribution of each drug component in the combination. Quotients for all in a combination are summed and drug interactions scored using the formula: FICI=(MIC Acomb A B C)/MICagent A+(MIC Bcomb A B C)/MICagent B+(MIC Ccomb A B C)/MICagentC Select pairwise combinations against MRSA were then combined with each of the 21 remaining single drugs to make triple combinations, formulated and tested in identical fashion to the double combinations. Synergy of combinations was confirmed via triplicate measurements of drug conditions at the MIC. Based on its high synergy against MRSA N315 in the sparse screening, ME/PI/TZ and its constituents were selected for further characterization. Final susceptibility testing of ME/PI/TZ and its components was performed using twofold dilution from 128 to 2 μg/ml for each component

In test [5] the test system is mecA. Kind of test: Expression profiling with qRT-PCR. The test is classed as cell-based, Staphylococcus aureus. The following applies: wild-type MRSA N315, relative to gyrB. In general terms: Real-time PCR tracks product formation cycle by cycle.
Method: Expression profiling with qRT-PCR: Wild-type and adapted MRSA N315 isolates were grown in triplicate in 100 ml flasks to mid-log phase in CAMHB +/−piperacillin at 11.1 μg/ml or tazobactam at 33.3 μg/ml. To harvest cells at mid-log phase, each culture flask was split into 2×50 ml screw-cap tubes, spun down at 4° C. for 10 min at 3500 rpm, supernatant removed, and pellets combined carefully with a 2 ml serological pipette. 1 ml RNAprotect Bacteria Reagent (Qiagen, Valencia, CA, USA) was added to pellets to stabilize the RNA, vortexed briefly, and incubated for 5 min at RT. After incubation, tubes were spun again at 4° C. for 10 min at 3500 rpm, supernatant removed, and the pellets were stored at −80° C. […]
CFX protocol: 2 min@50° C., 2 min@95° C., (15 s@95° C., 1 min@60° C.)×40 cycles. Gene expression was determined using the ΔΔCt method of normalized quantitation 60, where Ct indicates the cycle number at which exponential growth phase increases above threshold fluorescence signal.

Structures are written as SMILES.

As usually defined, the MIC is the smallest concentration in the dilution series that meets the test's criterion for growth inhibition. With `C[C@]1(Cn2ccnn2)[C@H](C(=O)O)N2C(=O)C[C@H]2S1(=O)=O` [Tazobactam], the “Result (Alive/Dead)” value in test [1] (67 mg/kg (of each) every 8 hrs SC, 6 doses, one line per mouse) is listed as “Dead”. Besides, the “Result (survivors per group)” value in test [1] (67 mg/kg (of each) every 8 hrs SC, 6 doses, six days post-infection) is 0/6. Besides, the “mice that succumbed to the infection” value in test [1] (most within 48 h, 67 mg/kg (of each)) is “all mice”. Moreover, the “collateral effect on susceptibility” value in test [2] is reported as “no collateral sensitivity”. For the same molecule, the MIC in test [3] (Staphylococcus aureus, MRSA) was 100 µg/mL; in test [3] (Wild-type N315), 100 µg/mL; in test [3] (colonies from mice given PI), 100 µg/mL; in test [3] (colonies from mice given Vehicle), 100 µg/mL; in test [4], 128 µg/mL. Moreover, the “induction of mecA expression” value in test [5] was “strong inducer of mecA”.
